Test results published in US20240317801A1, “PEPTIDOMIMETIC MATRIPTASE 2 INHIBITORS AND USES THEREOF” (Disc Medicine, Inc., priority 2020, published 2024).

Biological target: T1, Human Recombinant Matriptase 2 (Homo sapiens, UniProt Q8IU80)
T1 construct: purchased Enzo Life Sciences ALX-201-752-1
T1 sequence (Q8IU80 1-811): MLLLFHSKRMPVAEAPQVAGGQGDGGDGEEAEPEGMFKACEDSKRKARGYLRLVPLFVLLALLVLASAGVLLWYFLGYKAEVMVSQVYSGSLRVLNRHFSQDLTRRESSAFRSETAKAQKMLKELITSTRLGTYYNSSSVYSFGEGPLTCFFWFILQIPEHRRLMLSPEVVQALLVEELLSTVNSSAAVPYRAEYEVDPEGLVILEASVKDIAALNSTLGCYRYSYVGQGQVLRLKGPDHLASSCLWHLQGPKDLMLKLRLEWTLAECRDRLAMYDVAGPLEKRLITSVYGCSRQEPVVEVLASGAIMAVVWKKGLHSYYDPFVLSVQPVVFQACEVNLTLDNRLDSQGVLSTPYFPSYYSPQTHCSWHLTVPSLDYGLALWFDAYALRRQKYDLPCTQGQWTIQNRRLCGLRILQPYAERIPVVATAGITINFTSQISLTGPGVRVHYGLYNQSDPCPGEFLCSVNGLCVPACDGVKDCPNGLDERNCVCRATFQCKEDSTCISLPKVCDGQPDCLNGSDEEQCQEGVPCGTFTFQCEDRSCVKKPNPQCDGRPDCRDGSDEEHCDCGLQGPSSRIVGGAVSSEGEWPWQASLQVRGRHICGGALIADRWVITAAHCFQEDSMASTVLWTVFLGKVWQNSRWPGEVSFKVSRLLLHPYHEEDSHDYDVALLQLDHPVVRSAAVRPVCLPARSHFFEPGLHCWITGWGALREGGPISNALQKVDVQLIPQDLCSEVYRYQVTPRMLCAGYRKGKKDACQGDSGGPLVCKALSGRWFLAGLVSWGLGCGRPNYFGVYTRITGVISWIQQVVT
Assay: Matriptase 2 fluorescence-based inhibition assay (Boc-Gln-Ala-Arg-AMC substrate)
Format: biochemical
Settings: Ki derived from measured IC50 using Cheng-Prusoff equation; 30 min preincubation, 100 μM substrate, 25° C., pH 7.5; read-out: Mat-2 Ki
Procedure: Test compounds were evaluated for their potential to inhibit Human Recombinant Matriptase 2 (in-house and commercial protein from Enzo Life Sciences—cat log—ALX-201-752-1) using fluorescence-based assay. The concentration of Recombinant Matriptase 2 and the substrate used in the assay were: 7 nM (commercial) and 15 nM (In-house Matriptase 2) and 100 μM (Boc-Gln-Ala-Arg-7-amido-4-methyl coumarin hydrobromide—Cat log: B4153-Sigma and I-1550 from Bachem) respectively. The assay buffer used comprised 50 mM TRIS pH 7.5, 150 mM NaCl, 0.01% gelatin (G1393 Sigma). The assay was performed by using 384 well black flat bottom plate from Grenier (Cat log: 781076) at 25° C. The enzyme and the test compound were preincubated for 30 mins, and the plate was read at wavelength Ex: 360/Em:480 nm60 mins after substrate addition. The final assay volume of was 20 μl. Stock solution of compounds were initially prepared in DMSO, which were appropriately diluted for screening to determine IC50 determination (final DMSO conc in the assay was 1%). All the measurements were carried out using the Spectramax M5, Molecular devices. The test compounds were screened at 1 and 10 μM concentrations and IC50 was determined for the interested compounds.
Ki is the binding affinity of an inhibitor. Mat-2 Ki as described herein is the binding affinity of an inhibitor such as a compound as described and provided herein to Mat-2. Mat-2 Ki values are derived from the measured IC50. To determine IC50 values, dose-response curves were generated by plotting percentage inhibition as a function of inhibitor concentration and the data was fitted to a sigmoidal non-linear regression equation (variable slope) using Graph Pad Prism software V7. Mat-2 Ki values as described herein were derived from the IC50 using the Cheng-Prusoff equation, which is understood and appreciated by one the skill in the art. The Mat-2 Ki values of tested compounds as described herein are shown in Table A. Accordingly, the compounds can be used to inhibit matriptase 2 and treat diseases and conditions associated with matriptase 2, such as those described herein.

Ki | Compound
100 to 1000 nM | CCOC(=O)CNC(=O)C(=O)C(CCCNC(=N)N)NC(=O)[C@@H](NC(=O)C(CCc1ccccc1)NC(=O)CCc1ccccc1)[C@@H](C)O (stereo partly shown)
≤ 100 nM | CO[C@@H]1CC(C(=O)N[C@@H](CCCNC(=N)N)C(=O)C(=O)NC(C)(C)C)N(C(=O)[C@H](Cc2cscn2)NC(=O)OCc2ccccc2)C1 (stereo partly shown)
≥ 1000 nM | CNC(=O)C(O)C(CCCNC(=N)N)NC(=O)[C@@H](NC(=O)[C@H](CCc1ccccc1)NC(=O)CCc1ccccc1)[C@@H](C)O (stereo partly shown)
100 to 1000 nM | C[C@@H](O)[C@H](NC(=O)[C@H](CCc1ccccc1)NC(=O)CCc1ccccc1)C(=O)N[C@@H](CC1CCN(C(=N)N)CC1)C(=O)C(=O)NC1CC1 [(3S)-4-(1-carbamimidoylpiperidin-4-yl)-N-cyclopropyl-2-oxidanylidene-3-[[(2S,3R)-3-oxidanyl-2-[[(2S)-4-phenyl-2-(3-phenylpropanoylamino)butanoyl]amino]butanoyl]amino]butanamide]
≤ 100 nM | N=C(N)NCCC[C@H](NC(=O)C1(NC(=O)[C@H](CCc2ccccc2)NC(=O)CCc2ccccc2)CCC1)C(=O)C(=O)NC1CC1
≤ 100 nM | CC(C)(C)NC(=O)C(=O)[C@H](CCCNC(=N)N)NC(=O)C1COCCN1C(=O)[C@H](Cc1cscn1)NC(=O)OCc1ccccc1 (stereo partly shown)
≤ 100 nM | CCNC(=O)C(=O)C(CCCNC(=N)N)NC(=O)[C@@H](NC(=O)[C@H](CCc1ccccc1)NC(=O)CCc1ccccc1)[C@@H](C)O (stereo partly shown)
≤ 100 nM | CC(C)[C@H](NC(=O)[C@H](Cc1cscn1)NC(=O)OCc1ccccc1)C(=O)N[C@@H](CCCNC(=N)N)C(=O)C(=O)NC(C)(C)C
≤ 100 nM | N=C(N)NCCC[C@H](NC(=O)[C@@H]1C[C@@H](OCc2ccccc2)CN1C(=O)[C@H](CCc1ccccc1)NC(=O)CCc1ccccc1)C(=O)C(=O)NC1CC1 [(2S,4R)-4-(benzyloxy)-N—((S)-1-(cyclopropylamino)-6-guanidino-1,2-dioxohexan-3-yl)-1-((S)-4-phenyl-2-(3-phenylpropanamido)butanoyl)pyrrolidine-2-carboxamide]
≥ 1000 nM | C[C@@H](O)[C@H](NC(=O)[C@H](CCc1ccccc1)NC(=O)CCc1ccccc1)C(=O)N[C@@H](CCCNC(=N)N)C(=O)C(=O)N(C)C
≥ 1000 nM | CCNC(=O)C(=O)C(Cc1cccc(Cl)c1)NC(=O)[C@@H](NC(=O)[C@H](CCc1ccccc1)NC(=O)CCc1ccccc1)[C@@H](C)O (stereo partly shown)
≤ 100 nM | CNC(=O)C(=O)[C@H](CCCNC(=N)N)NC(=O)[C@@H](NC(=O)[C@H](CCc1ccccc1)NC(=O)CCc1ccccc1)[C@@H](C)O
≤ 100 nM | CO[C@H](C)[C@H](NC(=O)[C@H](Cc1cscn1)NC(=O)OC(C)C)C(=O)NC(CCCNC(=N)N)C(=O)C(=O)NC(C)(C)C (stereo partly shown)
100 to 1000 nM | C[C@@H](O)[C@H](NC(=O)C(CCc1ccccc1)NC(=O)OCc1ccccc1)C(=O)NC(CCc1ccc(N)nc1)C(=O)C(=O)NC(C)(C)C (stereo partly shown)
≤ 100 nM | CNC(=O)C(=O)[C@H](CCCNC(=N)N)NC(=O)[C@@H](NC(=O)[C@H](CCc1ccccc1)NC(=O)OCc1ccccc1)[C@@H](C)O
≤ 100 nM | C[C@@H](O)[C@H](NC(=O)[C@H](Cc1cscn1)NC(=O)OCc1ccccc1)C(=O)N[C@@H](CCCNC(=N)N)C(=O)C(=O)NC(C)(C)C
≤ 100 nM | N=C(N)NCCC[C@H](NC(=O)[C@@H]1C[C@@H](O)CN1C(=O)[C@H](CCc1ccccc1)NC(=O)CCc1ccccc1)C(=O)C(=O)NC1CC1 [(2S,4R)—N—((S)-1-(cyclopropylamino)-6-guanidino-1,2-dioxohexan-3-yl)-4-hydroxy-1-((S)-4-phenyl-2-(3-phenylpropanamido)butanoyl)pyrrolidine-2-carboxamide]
≤ 100 nM | C[C@@H](O)[C@H](NC(=O)[C@H](CCc1ccccc1)NC(=O)CCc1ccccc1)C(=O)N[C@@H](CCCNC(=N)N)C(=O)C(=O)NC1CC1 [(S)—N-cyclopropyl-6-guanidino-3-((2S,3R)-3-hydroxy-2-((S)-4-phenyl-2-(3-phenylpropanamido)butanamido)butanamido)-2-oxohexanamide]
≤ 100 nM | C[C@@H](O)[C@H](NC(=O)[C@H](Cc1cscn1)NC(=O)CCc1ccccc1)C(=O)N[C@@H](CCCNC(=N)N)C(=O)C(=O)NC(C)(C)C
≤ 100 nM | C[C@@H](O)[C@H](NC(=O)[C@H](CCc1ccccc1)NC(=O)CCc1ccccc1)C(=O)N[C@@H](CCCNC(=N)N)C(=O)C(=O)NC1(c2cccnc2)CC1

Second part, the compound before the results:

Compound | Ki
C[C@@H](O)[C@H](NC(=O)[C@H](CCc1ccccc1)NC(=O)CCc1ccccc1)C(=O)N[C@@H](CCCNC(=N)N)C(=O)C(N)=O | ≤ 100 nM
C[C@H](O)[C@H](NC(=O)[C@H](CCc1ccccc1)NC(=O)OCc1ccccc1)C(=O)N[C@@H](CCCNC(=N)N)C(=O)C(=O)NC(C)(C)C | ≤ 100 nM
CC(C)[C@H](NC(=O)[C@H](Cc1cscn1)NC(=O)CCc1ccccc1)C(=O)N[C@@H](CCCNC(=N)N)C(=O)C(=O)NC(C)(C)C | ≤ 100 nM
C[C@@H](O)[C@H](NC(=O)[C@H](CCc1ccccc1)NC(=O)CCc1ccccc1)C(=O)NC(CCCNC(=N)N)C(=O)C(=O)NCc1cccnc1 (stereo partly drawn) [6-guanidino-3-((2S,3R)-3-hydroxy-2-((S)-4-phenyl-2-(3-phenylpropanamido)butanamido)butanamido)-2-oxo-N-(pyridin-3-ylmethyl)hexanamide] | ≤ 100 nM
CC(C)[C@H](NC(=O)[C@H](Cc1cscn1)NC(=O)CCc1ccccc1)C(=O)N[C@@H](CCCNC(=N)N)C(=O)C(=O)NC1CC1 | ≤ 100 nM
C[C@H](O)[C@H](NC(=O)[C@H](CCc1ccccc1)NC(=O)CCc1ccccc1)C(=O)N[C@@H](CCCNC(=N)N)C(=O)C(=O)N[C@@H]1C[C@@H]1F | ≤ 100 nM
C[C@@H](O)[C@H](NC(=O)C(CCc1ccccc1)NC(=O)CCc1ccccc1)C(=O)NC(Cc1ccc(N)nc1)C(=O)C(=O)NC1CC1 (stereo partly shown) | ≥ 1000 nM
C[C@@H](O)[C@H](NC(=O)[C@H](Cc1cccnc1)NC(=O)OCc1ccccc1)C(=O)NC(CCCNC(=N)N)C(=O)C(=O)NC(C)(C)C (stereo partly shown) | ≤ 100 nM
CO[C@H](C)[C@H](NC(=O)[C@H](CCc1ccccc1)NC(=O)CCc1ccccc1)C(=O)N[C@@H](CCCNC(=N)N)C(=O)C(=O)NC1CC1 | ≤ 100 nM
CO[C@H](C)[C@H](NC(=O)C(Cc1cscn1)NC(=O)OCc1ccccc1)C(=O)NC(Cc1ccnc(N)c1)C(=O)C(=O)NC(C)(C)C (stereo partly shown) | ≤ 100 nM
C[C@H](O)[C@H](NC(=O)[C@H](CCc1ccccc1)NC(=O)CCc1ccccc1)C(=O)NC(CCCNC(=N)N)C(=O)C(=O)NC(C)(C)C (stereo partly shown) | ≤ 100 nM
CC(C)(C)NC(=O)C(=O)[C@H](CCCNC(=N)N)NC(=O)C1C[C@@H](O)CN1C(=O)[C@H](Cc1cscn1)NC(=O)OCc1ccccc1 (stereo partly shown) | ≤ 100 nM
C[C@@H](O)[C@H](NC(=O)C(CCc1ccccc1)NC(=O)CCc1ccccc1)C(=O)NC(Cc1cccc(CN)c1)C(=O)C(=O)NC1CC1 (stereo partly shown) | 100 to 1000 nM
C[C@@H](O)[C@H](NC(=O)[C@H](Cc1cscn1)NC(=O)CCc1ccccc1)C(=O)N[C@@H](CCCNC(=N)N)C(=O)C(=O)NC1CC1 | ≤ 100 nM
CC(C)(C)NC(=O)C(=O)C(CCCNC(=N)N)NC(=O)C1(NC(=O)[C@H](Cc2cscn2)NC(=O)OCc2ccccc2)CCCC1 (stereo partly shown) | ≤ 100 nM
CO[C@@H](C)C(NC(=O)[C@H](Cc1cscn1)NC(=O)OCc1ccccc1)C(=O)NC(CCCNC(=N)N)C(=O)C(=O)NC(C)(C)C (stereo partly shown) | ≤ 100 nM
C[C@@H](O)[C@H](NC(=O)[C@H](CCc1ccccc1)NC(=O)CCc1ccccc1)C(=O)N[C@@H](CCCNC(=N)N)C(=O)C(=O)NC1(C)CC1 [(S)-6-guanidino-3-((2S,3R)-3-hydroxy-2-((S)-4-phenyl-2-(3-phenylpropanamido)butanamido)butanamido)-N-(1-methylcyclopropyl)-2-oxohexanamide] | ≤ 100 nM
